Measurements reported in article PMC10058245 (Science Advances, 2023).
Where a chain is given by its changes, count along the chain named.

Assays:
[1] = molecular target: T1, VRAC (SWELL1/LRRC8A-containing volume-regulated anion channel) (Homo sapiens, UniProt Q8IWT6); assay: whole-cell patch clamp of hypotonicity-induced VRAC currents; type: cell-based
T1 sequence (Q8IWT6 1-810): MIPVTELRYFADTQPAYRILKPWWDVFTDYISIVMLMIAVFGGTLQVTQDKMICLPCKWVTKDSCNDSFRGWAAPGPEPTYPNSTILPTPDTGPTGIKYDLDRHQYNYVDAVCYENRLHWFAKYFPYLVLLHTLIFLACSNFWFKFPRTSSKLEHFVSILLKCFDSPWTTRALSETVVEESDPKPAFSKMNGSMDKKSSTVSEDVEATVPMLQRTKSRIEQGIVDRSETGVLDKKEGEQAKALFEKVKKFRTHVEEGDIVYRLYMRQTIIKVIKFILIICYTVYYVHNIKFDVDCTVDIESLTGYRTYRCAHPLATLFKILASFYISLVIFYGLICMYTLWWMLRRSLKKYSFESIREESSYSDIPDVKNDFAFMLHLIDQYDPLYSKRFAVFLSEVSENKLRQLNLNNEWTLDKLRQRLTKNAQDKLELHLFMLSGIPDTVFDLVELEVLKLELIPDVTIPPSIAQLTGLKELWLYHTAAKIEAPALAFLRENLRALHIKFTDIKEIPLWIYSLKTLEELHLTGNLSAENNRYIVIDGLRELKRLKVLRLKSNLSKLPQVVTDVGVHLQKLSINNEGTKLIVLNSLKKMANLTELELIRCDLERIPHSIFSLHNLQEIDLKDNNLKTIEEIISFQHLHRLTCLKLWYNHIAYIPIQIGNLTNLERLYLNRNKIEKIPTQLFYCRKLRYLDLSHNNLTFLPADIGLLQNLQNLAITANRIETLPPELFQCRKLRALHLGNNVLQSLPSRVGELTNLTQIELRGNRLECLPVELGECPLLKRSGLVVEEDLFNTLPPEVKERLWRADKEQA

[2] = molecular target: T2, VRAC (Swell1/Lrrc8a-containing volume-regulated anion channel) (Mus musculus, UniProt Q80WG5); assay: whole-cell patch clamp of hypotonicity-induced VRAC currents in BV2 microglia; type: cell-based
T2 sequence (Q80WG5 1-810): T1 sequence (Q8IWT6 1-810) with P75S, G76S, I86V, I276A, A591V, I715V, T722A, N792S

COc1cc(C(=O)NS(=O)(=O)c2ccccc2C)ccc1Cc1cn(C)c2ccc(NC(=O)OC3CCCC3)cc12 [zafirlukast]
IC50 [1]: 4.9 µM

O=c1oc2ccccc2c(O)c1Cc1c(O)c2ccccc2oc1=O [dicumarol]
IC50 [1]: 3.8 µM
IC50 [2]: 4.1 µM
